From patent publication US20210177732A1, “COMBINATION OF EXTRACTS OF QUINQUINA AND OF LEONTOPODIUM ALPINUM AND OF THE MANGANESE SALT OF L-PYRROLIDONE CARBOXYLIC ACID IN THE TREATMENT OF ALOPECIA” (PIERRE FABRE DERMO-COSMETIQUE, priority 2018, published 2021)

System: Wnt/β-catenin pathway
Test: Activation of the Wnt/β-catenin pathway, TCF/LEF luciferase reporter in dermal papilla cells derived from human hair follicles
Type: cell-based
Details: human follicular dermal papilla cells, 24 h incubation, Wnt3a 10 nM, Mn-PCA 500 μM, edelweiss 30 μg/mL; for Average RLU (luminescence due to luciferase expression): average of 3 donors (6 experiments), cinchona 10 μg/mL, combination at same concentrations, control 410.2; for activation of the Wnt-β-catenin pathway versus control: combination 10 μg/mL + 500 μM + 30 μg/mL
Experimental: The aim of this study is to evaluate the effects of the combination of an extract of cinchona, manganese salt of L-pyrrolidone carboxylic acid and an extract of Leontopodium alpinum on the activation of the Wnt/β-catenin pathway on dermal papilla cells derived from human hair follicles.
The studies are carried out on human cells derived from the dermal papillae of the follicles of three donors. The cells are inoculated in 96-well plates and cultured for 24 h with the necessary supplements. The cells are incubated with specific reagents in order to be transfected with a lentivirus (expressing the luciferase gene under the control of the Wnt/β-catenin promoter (TCF/LEF transcriptional response element). The transfected cells are incubated for 24 hours with the products to be tested, i.e. either with an extract of cinchona (10 μg/ml) diluted in DMSO, or with the manganese salt of L-pyrrolidone carboxylic acid (500 μM) diluted in water, or with an extract of Leontopodium alpinum (30 μg/ml) also diluted in water, or with the combination of the three compounds at the same concentrations as above. The cinchona used in this study is harvested in Ecuador, in the forests of Echeandia. The extract of Leontopodium alpinum tested in this study comes from a variety called Leontopodium alpinum Helvetia. The extract tested corresponds to the commercial material Alpaflor® from the supplier DSM. The manganese salt of L-pyrrolidone carboxylic acid tested in this study corresponds to the commercial material Mangalidone® from the supplier Solabia. It is obtained by cyclisation of glutamic acid of plant origin. Its INCI name is manganese PCA and its CAS number is 29193-02-2. A positive control (Wnt3a protein at 10 nM) is also tested. Activation of the Wnt/β-catenin pathway is highlighted by the quantification of luminescence due to luciferase expression.
A statistical analysis is performed, an intergroup comparison is made by a repeated measures ANOVA followed by Dunnett's post-test on the raw data.

Molecule: O=C1CC[C@@H](C(=O)[O-])N1.O=C1CC[C@@H](C(=O)[O-])N1.[Mn+2] [Mn-PCA (L), manganese salt of L-pyrrolidone carboxylic acid]
- Average RLU (luminescence due to luciferase expression): 735.2 RLU
- activation of the Wnt-β-catenin pathway versus control: +77±17%

B1: Wnt3a: positive control, Wnt3a protein at 10 nM (protein, UniProt P56704 19-352, looked up)
Protein Wnt-3a: SYPIWWSLAVGPQYSSLGSQPILCASIPGLVPKQLRFCRNYVEIMPSVAEGIKIGIQECQHQFRGRRWNCTTVHDSLAIFGPVLDKATRESAFVHAIASAGVAFAVTRSCAEGTAAICGCSSRHQGSPGKGWKWGGCSEDIEFGGMVSREFADARENRPDARSAMNRHNNEAGRQAIASHMHLKCKCHGLSGSCEVKTCWWSQPDFRAIGDFLKDKYDSASEMVVEKHRESRGWVETLRPRYTYFKVPTERDLVYYEASPNFCEPNPETGSFGTRDRTCNVSSHGIDGCDLLCCGRGHNARAERRREKCRCVFHWCCYVSCQECTRVYDVHTCK
- Average RLU (luminescence due to luciferase expression): 2366.9 RLU
- activation of the Wnt-β-catenin pathway versus control: +451±93%
